Data taken from ChEMBL document CHEMBL1201862, “PubChem BioAssay data set” (2004).
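How tested: cells in 96-well plates exposed to compound for 48 hours at five concentrations. GI50 is the concentration that inhibits growth by half.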 Calls of active or inactive are those of the source. Cut-off read from the data, not from the text of the source: active = GI50 up to about 1.1 µM and inactive = higher.

Assays:
Assay in all cases: NCI-60 cell line screen, 48 h
[1] = system: CAKI-1
[2] = system: CCRF-CEM
[3] = system: COLO 205
[4] = system: HCT-15
[5] = system: K562
[6] = system: KM12
[7] = system: LOX IMVI
[8] = system: MDA-MB-231
[9] = system: MDA-MB-435
[10] = system: Malme-3M
[11] = system: NCI-H23
[12] = system: NCI-H522
[13] = system: OVCAR-5
[14] = system: OVCAR-8
[15] = system: SK-OV-3
[16] = system: SN12C
[17] = system: U-251
[18] = system: UACC-257
[19] = system: RPMI-8226

O=C(NC(=S)Nc1ccc(Br)cc1)c1ccc2c(c1)Sc1ccccc1S2
GI50 [1]: 20.1 µM (inactive)
GI50 [2]: 16.5 µM (inactive)
GI50 [3]: 41.8 µM (inactive)
GI50 [4]: 38 µM
GI50 [5]: 9.04 µM (inactive)
GI50 [6]: 23.8 µM (inactive)
GI50 [7]: 23.3 µM (inactive)
GI50 [8]: 17.6 µM (inactive)
GI50 [9]: 94.4 µM (inactive)
GI50 [10]: 24.4 µM (inactive)
GI50 [11]: 21.5 µM (inactive)
GI50 [12]: 23.1 µM (inactive)
GI50 [13]: 20.6 µM (inactive)
GI50 [14]: 17.3 µM (inactive)
GI50 [15]: 16.7 µM (inactive)
GI50 [16]: 18.8 µM (inactive)
GI50 [17]: 19 µM (inactive)
GI50 [18]: 21.7 µM (inactive)

O=C(/N=N/c1ccccc1Cl)NNc1ccccc1Cl
GI50 [1]: 36.7 µM (inactive)
GI50 [2]: 22.2 µM (inactive)
GI50 [4]: 60.7 µM
GI50 [5]: 27.8 µM (inactive)
GI50 [7]: 23.4 µM (inactive)
GI50 [8]: 54.3 µM (inactive)
GI50 [9]: 31 µM (inactive)
GI50 [10]: 67 µM (inactive)
GI50 [11]: 50 µM (inactive)
GI50 [12]: 23.6 µM (inactive)
GI50 [13]: 43.2 µM (inactive)
GI50 [14]: 27.6 µM (inactive)
GI50 [19]: 24.7 µM (inactive)
GI50 [16]: 61.7 µM (inactive)
GI50 [17]: 41.6 µM (inactive)
GI50 [18]: > 100 µM (inactive)

NC(=O)NC(=O)c1cccc(CNc2ccc(C(=O)N[C@@H](CCC(=O)O)C(=O)O)cc2)n1
GI50 [1]: > 100 µM (inactive)
GI50 [3]: > 100 µM (inactive)
GI50 [4]: > 100 µM
GI50 [5]: > 100 µM (inactive)
GI50 [6]: > 100 µM (inactive)
GI50 [7]: > 100 µM (inactive)
GI50 [8]: > 100 µM (inactive)
GI50 [9]: > 100 µM (inactive)
GI50 [11]: > 100 µM (inactive)
GI50 [12]: > 100 µM (inactive)
GI50 [13]: > 100 µM (inactive)
GI50 [14]: > 100 µM (inactive)
GI50 [19]: > 100 µM (inactive)
GI50 [15]: > 100 µM (inactive)
GI50 [16]: > 100 µM (inactive)
GI50 [17]: > 100 µM (inactive)
GI50 [18]: > 100 µM (inactive)

COc1cc(/C=N/N=C2NCCN2)ccc1O
GI50 [2]: > 100 µM (inactive)
GI50 [3]: > 100 µM (inactive)
GI50 [4]: > 100 µM
GI50 [5]: > 100 µM (inactive)
GI50 [6]: > 100 µM (inactive)
GI50 [7]: > 100 µM (inactive)
GI50 [8]: > 100 µM (inactive)
GI50 [9]: > 100 µM (inactive)
GI50 [10]: > 100 µM (inactive)
GI50 [11]: > 100 µM (inactive)
GI50 [12]: > 100 µM (inactive)
GI50 [13]: > 100 µM (inactive)
GI50 [14]: > 100 µM (inactive)
GI50 [19]: > 100 µM (inactive)
GI50 [15]: > 100 µM (inactive)
GI50 [16]: > 100 µM (inactive)
GI50 [17]: > 100 µM (inactive)
GI50 [18]: > 100 µM (inactive)

COc1ccc2c(c1)CCN1CCc3cc(OC)c(OC)cc3CC21 (stereo not drawn)
GI50 [1]: > 100 µM (inactive)
GI50 [2]: 55 µM (inactive)
GI50 [3]: 21.3 µM (inactive)
GI50 [4]: 61 µM
GI50 [5]: 34.9 µM (inactive)
GI50 [6]: 88.5 µM (inactive)
GI50 [7]: 33 µM (inactive)
GI50 [8]: > 100 µM (inactive)
GI50 [9]: 66.1 µM (inactive)
GI50 [11]: 98.9 µM (inactive)
GI50 [12]: > 10 µM (inactive)
GI50 [13]: > 100 µM (inactive)
GI50 [14]: > 100 µM (inactive)
GI50 [19]: 65.5 µM (inactive)
GI50 [15]: > 100 µM (inactive)
GI50 [16]: > 100 µM (inactive)
GI50 [17]: 72.3 µM (inactive)
GI50 [18]: 93.8 µM (inactive)

C=CC1(C)CCC2C(=CCC3C2(C)CC(O)C(O)C3(C)COC2OC(CO)C(O)C(O)C2O)C1 (stereo not drawn)
GI50 [1]: > 100 µM (inactive)
GI50 [2]: 46.1 µM (inactive)
GI50 [3]: > 100 µM (inactive)
GI50 [4]: > 100 µM
GI50 [5]: > 100 µM (inactive)
GI50 [6]: > 100 µM (inactive)
GI50 [7]: > 100 µM (inactive)
GI50 [8]: > 100 µM (inactive)
GI50 [9]: > 100 µM (inactive)
GI50 [10]: > 100 µM (inactive)
GI50 [11]: > 100 µM (inactive)
GI50 [12]: > 100 µM (inactive)
GI50 [13]: > 100 µM (inactive)
GI50 [14]: > 100 µM (inactive)
GI50 [15]: > 100 µM (inactive)
GI50 [16]: > 100 µM (inactive)
GI50 [17]: > 100 µM (inactive)
GI50 [18]: > 100 µM (inactive)

COc1ccc(/C=C2/C(C)=NN(c3cccc(Cl)c3)/C2=N/c2nc3ccccc3s2)cc1
GI50 [1]: 28.4 µM (inactive)
GI50 [2]: 25.3 µM (inactive)
GI50 [4]: 17.5 µM
GI50 [5]: 26.7 µM (inactive)
GI50 [6]: 30.4 µM (inactive)
GI50 [7]: 18 µM (inactive)
GI50 [8]: 24.7 µM (inactive)
GI50 [9]: 33.7 µM (inactive)
GI50 [11]: 16.9 µM (inactive)
GI50 [12]: 19.1 µM (inactive)
GI50 [13]: 25.1 µM (inactive)
GI50 [14]: 22.6 µM (inactive)
GI50 [19]: 22.7 µM (inactive)
GI50 [15]: 24 µM (inactive)
GI50 [17]: 20.7 µM (inactive)
GI50 [18]: 22.6 µM (inactive)

COc1ccc(C(=O)/C=C/c2ccc(OCC#N)cc2)cc1OC
GI50 [1]: 17.4 µM (inactive)
GI50 [2]: 3.21 µM (inactive)
GI50 [3]: 11.9 µM (inactive)
GI50 [4]: 20 µM
GI50 [5]: 5.52 µM (inactive)
GI50 [6]: 5.33 µM (inactive)
GI50 [8]: 13.8 µM (inactive)
GI50 [9]: 17.5 µM (inactive)
GI50 [10]: 20.9 µM (inactive)
GI50 [11]: 21.9 µM (inactive)
GI50 [12]: 16.8 µM (inactive)
GI50 [13]: > 10 µM (inactive)
GI50 [14]: 28 µM (inactive)
GI50 [15]: 26.5 µM (inactive)
GI50 [16]: 16.4 µM (inactive)
GI50 [17]: 14.3 µM (inactive)
GI50 [18]: > 10 µM (inactive)
